Laboratory results: US20240108740A1, “THERAPEUTIC COMPOSITIONS INCLUDING SPN10 AND USES THEREOF” (Stealth BioTherapeutics Inc., priority 2022, published 2024)
Residues, ends and D or L forms follow the SMILES beside them.

Assays:
[1] = test system: isolated mouse liver mitochondria; experiment: Example 19: H2O2 production by isolated mitochondria (luminol chemiluminescence); conditions: AUC over 20 min
Protocol: Livers will be harvested from mice, homogenized in ice-cold buffer, and centrifuged at 13800×g for 10 min. The pellet will be washed once, re-suspended in 0.3 mL of wash buffer, and placed on ice until use. H2O2 will be measured using luminol chemiluminescence as described previously (Li, et al., Biochim. Biophys. Acta 1428:1-12 (1999). 0.1 mg mitochondrial protein will be added to 0.5 mL potassium phosphate buffer (100 mM, pH 8.0) in the presence of vehicle, peptide conjugates, SPN10(s) alone or in combination with aromatic-cationic peptides, or aromatic-cationic peptides. […] luminol and 0.7 IU horseradish peroxidase will be added, and chemiluminescence will be monitored with a Chronolog Model 560 aggregometer (Havertown, PA) for 20 minutes at 37° C. The amount of H2O2 produced will be quantified as the area under the curve (AUC) over 20 min, and all data will be normalized to AUC produced by mitochondria alone.

[2] = test system: Isolated guinea pig hearts; experiment: Example 28: lipid peroxidation in hearts subjected to ischemia and reperfusion; conditions: brief intervals of ischemia and reperfusion; compared to untreated controls
Description: Isolated guinea pig hearts will be perfused in a retrograde manner in a Langendorff apparatus and subjected to various intervals of ischemia-reperfusion. Hearts will be fixed immediately, embedded in paraffin, and sectioned. Immunohistochemical analysis of 4-hydroxy-2-nonenol (HNE)-modified proteins will be carried out using an anti-HNE antibody.

Sprague Dawley rats = experiment: Example 51: burn-induced hypermetabolism and UCP-1 expression in brown adipose tissue; type: in vivo, rat
Description: Methods. Sprague Dawley rats will be randomly divided into the following groups; sham (S), sham with saline vehicle (SSal), sham with peptide conjugate-treatment (SC), sham with aromatic-cationic peptides (SC2), sham with SPN10(s) (SC3), sham with SPN10(s)+aromatic-cationic peptides (SC4), burn with saline vehicle (BSal), burn with peptide conjugate-treatment (BC), burn with aromatic-cationic peptides (BC2), burn with SPN10(s) (BC3) and burn with SPN10(s)+aromatic-cationic peptides (BC4). The dorsal aspect of burn subjects will be immersed into 100° C. water for 12 seconds to produce third degree 30% TBSA burns under general anesthesia. Sham burn will be produced by immersion in lukewarm water. Subjects will receive 40 mL/kg intraperitoneal saline injection for the resuscitation following the injury. A venous catheter will be placed surgically into the right jugular vein subsequent to sham or burn injury. […] Indirect calorimetry will be performed for 24 hours at 6 days after burn injury in a TSE Indirect Calorimetry System (TSE Co., Germany), and VO2, VCO2 and energy expenditure will be recorded every six minutes. Interscapullar brown adipose tissue will be collected after the indirect calorimetry, and UCP-1 expression in the brown adipose tissue will be evaluated by Western blot.

[3] = test system: New Zealand white rabbits; experiment: Acute myocardial infarction injury in a rabbit model; type: in vivo; conditions: IV infusion, 30-minute ischemia, 3 hours post-reperfusion
Protocol: New Zealand white rabbits will be used in this study. The rabbits will be males and >10 weeks in age. Environmental controls in the animal rooms will be set to maintain temperatures of 61° to 72° F. and relative humidity between 30% and 70%. Room temperature and humidity will be recorded hourly, and monitored daily. There will be approximately 10-15 air exchanges per hour in the animal rooms. Photoperiod will be 12-hr light/12-hr dark (via fluorescent lighting) with exceptions as necessary to accommodate dosing and data collection. Routine daily observations will be performed. Harlan Teklad, Certified Diet (2030C), rabbit diet will be provided approximately 180 grams per day from arrival to the facility. In addition, fresh fruits and vegetables will be given to the rabbit 3 times a week. […]
In all cases, treatments will be started approximately 30 minutes after the onset of a 30-minute ischemic insult (coronary occlusion) and continued for up to 3 hours following reperfusion. In all cases, cardiovascular function will be monitored both prior to and during ischemia, as well as for up to 180 minutes (3 hours) post-reperfusion. The experiments will be terminated 3 hours post-reperfusion (end of study); irreversible myocardial injury (infarct size by histomorphometery) at this time-point will be evaluated, and will be the primary-end-point of the study.

N=C(N)NCCC[C@H](NC(=O)[C@@H](N)Cc1c[nH]c2ccccc12)C(=O)N[C@@H](Cc1c[nH]c2ccccc12)C(=O)N[C@@H](CCCCN)C(N)=O [SPN10, H-L-Trp-L-Arg-L-Trp-L-Lys-NH2] (H-WRWK-NH2)
amount of H2O2 production [1]: significantly reduced | lipid peroxidation (HNE-modified proteins) [2]: prevent lipid peroxidation | UCP-1 levels in brown adipose tissue (Western blot) (Sprague Dawley rats; burn groups BC, BC2, BC3, BC4 vs BSal): lower than in the BSal group | increase in VO2, VCO2, and energy expenditure after burn (Sprague Dawley rats; infused for 7 days): significantly attenuate this effect | infarct size compared to the vehicle control group [3]: decreased infarct size
